The values that follow come from patent US11426371B2, “Compositions and methods for treating cancer” (University of Virginia Patent Foundation, priority 2017, dated 2022).

The subject of data set [1] is OCI-M2. Put plainly: Cell viability, panel of AML cell lines. The data set is classed as cell-based. To be noted: Homo sapiens. The procedure: (§1) Representative human AML cell lines (FIG. 2A; upper and lower panels) HL60/VCR and (FIG. 2B; upper and lower panels) OCI-AML2 were treated with SACLAC for 24 and 48 hours. Viability was assessed by MTS assay at 24 and 48 hours and apoptosis was assessed by flow cytometry at 48 hours. Upper panels represent % viability and lower panels indicate % apoptosis.
(§2) Two representative human-derived AML cell lines, HL60/VCR and OCI-AML2, are shown. These studies have been expanded to a large panel of additional human AML cell lines (n=30, Table 1).

The test system of data set [2] is THF-1. Description: Cell viability, panel of AML cell lines. The data set is classed as cell-based. To be noted: Homo sapiens, THF-1 cells. The procedure: as §1, §2
Data set [3] has as its system AML cell lines (HL60/VCR, OCI-AML2, THP-1). Put plainly: Viability of AML cell lines, MTS and Cell Titer Glo (FIGS. 2, 4, Table 2). The data set is classed as cell-based, human. To be noted: for EC50: Homo sapiens, 24 h. The method, then:
as §1
AML cell lines and normal samples (PBMCs and/or CD34+ cells) were treated for 24 hours with SACLAC (FIG. 4A-7 cell lines) and similar AC inhibitor SABRAC (2-bromo-N-((2S,3R)-1,3-dihydroxyoctadecan-2-yl)acetamide) (FIG. 4B-four cell lines). Viability was assessed by MTS and Cell Titer Glo viability assays. EC50 values (FIG. 4C) were graphed to visualize fold-change between AML and normal cells with treatment of each compound. […] Cells tested for SABRAC were HL60/VCR and OCI-AML2 AML cell lines and two normal PBMC control samples (PBMC1 and PBMC2). The same four cell types were tested for SACLAC, as well as the AML cell line THP-1 and two normal CD34+ cell control samples (CD34+1 and CD34+2).
Next, we tested the toxicity of SACLAC and a similar published AC inhibitor SABRAC^17 to normal hematopoietic cells to ensure that AML cells are selectively targeted by the compound (FIG. 4A). […] This degree of selectivity was unexpected but extremely important for potential clinical use. […] This remarkable increase in selectivity is a surprising discovery that greatly exceeds the predicted similarity in compound behavior that one may expect with a simple substitution of one halogen for another (Cl for Br).

Data set [4] relates to S1P and ceramide in HL60/VCR and OCI-AML2. Put plainly: Lipid metabolites by mass spectrometry in AML cell lines. Particulars: HL60/VCR and OCI-AML2, 24 hours. The class given is cell-based, human. The method, then: Representative human AML cell lines (FIG. 3A; upper and lower panels) HL60/VCR and (FIG. 3B; upper and lower panels) OCI-AML2 were treated with SACLAC for 24 hours. Concentrations of lipid metabolites were determined by mass spectrometry. *, p<0.05; **, p<0.01 (Student's t-test). Upper panels represent Lipid in pmol/mg protein and lower panels represent Ceramide in pmol/mg protein.
We also characterized lipid changes in response to SACLAC treatment in order to provide further evidence of potent AC inhibition (FIGS. 3A-3B). […] Thus, the inhibitor blocks a common mechanism of ceramide detoxification in AML and is likely to provide therapeutic benefit by facilitating ceramide accumulation and apoptotic death of these proliferative cells.

Data set [5] relates to primary AML patient samples. Description: Apoptosis in primary AML patient cells. The class given is cell-based, human. To be noted: 48 hours, nutrient- and growth factor-rich culture. The method, then: Multiple primary patient (Pt) AML cells were treated with various doses of SACLAC and assayed for apoptosis at 48 hours and colony formation over several days. […] The ordinate represents Colonies (as % of control) and the abscissa represents the concentration of SACLAC (μM). Unt=untreated; DMSO=dimethyl sulfoxide vehicle control.
Further, effects on patient samples strongly support the potential for clinical relevance of SACLAC. […] Based on the data presented here, we propose that use of SACLAC for treatment of AML is novel and clinically promising.

Data set [6] can be described thus: Maximum tolerated dose in vivo. To be noted: preliminary results (not shown). The method, then: Preliminary results (not shown) indicate a maximum tolerated dose in vivo of at least about 50 mg/kg body weight. Pharmacokinetic studies are in progress to measure any accumulation of SACLAC in the blood following treatment. Initial studies are based on doses of 20 or 40 mg/kg body weight.

A short description of data set [7]: SACLAC serum/blood levels after i.p. or i.v. administration. The data set is classed as in vivo, mouse. The procedure:
FIG. 7 graphically depicts SACLAC levels in mouse blood following administration intraperitoneally (i.p.) at 40 mg/kg body weight or intravenously (i.v.) at 5 mg/kg body weight. The ordinate represents Concentration (nM) and the abscissa Time (hours). DMSO (dimethyl sulfoxide) and β-HPCD (2-hydroxypropyl […]) represent the vehicle for SACLAC delivery.
Serum concentrations of SACLAC were also determined following administration. (see FIG. 7). […] SACLAC was dissolved in dimethyl sulfoxide (DMSO) or 2-hydroxypropyl-β-cyclodextrin (β-HPCD). Serum levels were determined following injection of free SACLAC (i.p.—in DMSO at 40 mg/kg; or i.v.—5 mg/kg in β-HPCD). […] They also show our ability to generate and characterize in vitro functionality by modifying delivery and delivery systems, monitor PK and evolve our approaches based on experimental results in order to maximize in vivo efficacy.

A short description of data set [8]: Solubility in vehicles for i.v. drug delivery. The data set is classed as physicochemical.
The target in data set [9] is T1, acid ceramidase (AC) (Homo sapiens, UniProt Q13510).
T1 sequence (Q13510 143-395 limits assumed): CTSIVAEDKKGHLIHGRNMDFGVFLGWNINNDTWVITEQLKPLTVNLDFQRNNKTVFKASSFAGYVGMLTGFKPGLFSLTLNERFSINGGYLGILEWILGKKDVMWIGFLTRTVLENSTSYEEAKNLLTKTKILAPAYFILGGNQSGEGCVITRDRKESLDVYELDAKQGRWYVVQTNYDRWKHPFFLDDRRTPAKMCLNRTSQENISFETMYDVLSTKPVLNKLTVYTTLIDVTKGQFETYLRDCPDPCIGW
T1 sequence (Q13510 22-142 limits assumed): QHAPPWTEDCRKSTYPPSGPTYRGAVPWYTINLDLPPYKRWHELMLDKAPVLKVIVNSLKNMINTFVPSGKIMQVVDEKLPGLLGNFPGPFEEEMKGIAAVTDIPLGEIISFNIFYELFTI
Put plainly: AC inhibition in lysates from cells overexpressing the enzyme. The class given is biochemical. Also noted: expressed in transfected cells.

Data set [10] addresses T1, acid ceramidase (AC). Put plainly: LC/MS analysis of tryptic digests of AC incubated with SACLAC. The class given is binding. Also noted: expressed in transfected cells. To be noted: peptide C,T,S,I,V,A,E,D,K.

Read-outs that look alike come from different tables or passages of the source.

Broadly, the EC50 is the concentration giving half of the maximal effect. What is called MTD is the largest dose that counted as tolerated. Higher therefore signals a wide tolerated range. For orientation: IC50 means the concentration needed to halve the response being measured. For `CCCCCCCCCCCCCCC[C@@H](O)[C@H](CO)NC(=O)CCl` [SACLAC, 2-chloro-N-((2S,3R)-1,3-dihydroxyoctadecan-2-yl)acetamide], the concentration giving a half-maximal response (EC50) is above 10000 nM in data set [1] (OCI-M2, 24 h, read-out: EC50 24 h); above 10000 nM in [1] (OCI-M2, 48 h, read-out: EC50 48 h); 6700 nM in data set [2] (24 h, read-out: EC50 24 h); 4800 nM in data set [2] (48 h, read-out: EC50 48 h); 2270 nM in data set [3] (mean of AML cell lines, 24 hours, read-out: EC50 AML); 2600 nM in data set [3] (SACLAC: HL60/VCR, OCI-AML2, THP-1, SABRAC: HL60/VCR, OCI-AML2, order of cells not given, read-out: EC50, single AML cell lines (FIG. 4A, 4B)). In addition, the viability at 10 µM in data set [1] (OCI-M2 cells, 10 μM, read-out: viable cells at the highest tested dose) turned out to be 60%. In addition, the viability entry in data set [3] (HL60/VCR and OCI-AML2, MTS, 24 and 48 hours, dose-dependent) was “reduced viability”. Moreover, the S1P result in data set [4] is “significantly reduced S1P”. Further, the ceramide entry in [4] is listed as “increased ceramide”. In [5], the apoptosis result is “effectively induced apoptosis”. The maximum tolerated dose (MTD) in data set [6] was at least 50 mg/kg. For the same compound, the “uptake following i.p. injection” value in data set [7] (i.p. injection) is given as “suboptimal uptake”. In addition, the serum levels entry in [7] (i.p., 40 mg/kg in DMSO) is reported as “low serum levels”; in data set [7] (i.v., 5 mg/kg in β-HPCD, compared with i.p.), “great improvement”. Also, the “solubility in vehicles for i.v. drug delivery” value in data set [8] is “low solubility”. The IC50 in data set [9] (irreversible binding to its binding site, read-out: IC50) was 46.7 nM; in data set [9] (lysates from cells overexpressing the enzyme, read-out: IC50, AC inhibition) it was 46 nM. Moreover, the “covalent modification of AC peptide” value in [10] was “formation of the expected lipid modified peptide”.
